From PubChem BioAssay AID1963839 (Molecular Pharmacology Branch, DTP, NCI, 2024)

Test system: 817829-284-R-J1-PDC complex spheroid viability
Experiment: Anticancer human tumor 817829-284-R-J1-PDC patient-derived colon adenocarcinoma cell line growth inhibition [POLQ]
Conditions: for IC50: curve of first compound; for viability, T/C: stronger effect = lower value; active = viability on the fitted dose curve at most 10% of control; inactive = the rest
Procedure, shortened: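 Patient-derived tumour cells were co-cultured with HUVEC and mesenchymal stem cells as multicellular spheroids at 37 °C. They were treated with POLQ inhibitors (novobiocin, ART-558, RP6685) alone or combined with other agents. Top concentrations were at or near clinical Cmax (otherwise 10 microM; SN-38 at 1 microM), decreasing in half-log steps.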

[1] = second compound 0.0316 µM, first compound 0.0316 µM
[2] = second compound 0.0316 µM, first compound 0.1 µM
[3] = second compound 0.0316 µM, first compound 0.316 µM
[4] = second compound 0.0316 µM, first compound 1 µM
[5] = second compound 0.0316 µM, first compound 3.16 µM
[6] = second compound 0.0316 µM, first compound 10 µM
[7] = second compound 0.1 µM, first compound 0.0316 µM
[8] = second compound 0.1 µM, first compound 0.1 µM
[9] = second compound 0.1 µM, first compound 0.316 µM
[10] = second compound 0.1 µM, first compound 1 µM
[11] = second compound 0.1 µM, first compound 3.16 µM
[12] = second compound 0.1 µM, first compound 10 µM
[13] = second compound 0.316 µM, first compound 0.0316 µM
[14] = second compound 0.316 µM, first compound 0.1 µM
[15] = second compound 0.316 µM, first compound 0.316 µM
[16] = second compound 0.316 µM, first compound 1 µM
[17] = second compound 0.316 µM, first compound 3.16 µM
[18] = second compound 0.316 µM, first compound 10 µM
[19] = second compound 1 µM, first compound 0.0316 µM
[20] = second compound 1 µM, first compound 0.1 µM
[21] = second compound 1 µM, first compound 0.316 µM
[22] = second compound 1 µM, first compound 1 µM
[23] = second compound 1 µM, first compound 3.16 µM
[24] = second compound 1 µM, first compound 10 µM
[25] = second compound 3.16 µM, first compound 0.0316 µM
[26] = second compound 3.16 µM, first compound 0.1 µM
[27] = second compound 3.16 µM, first compound 0.316 µM
[28] = second compound 3.16 µM, first compound 1 µM
[29] = second compound 3.16 µM, first compound 3.16 µM
[30] = second compound 3.16 µM, first compound 10 µM
[31] = second compound 10 µM, first compound 0.0316 µM
[32] = second compound 10 µM, first compound 0.1 µM
[33] = second compound 10 µM, first compound 0.316 µM
[34] = second compound 10 µM, first compound 1 µM
[35] = second compound 10 µM, first compound 3.16 µM
[36] = second compound 10 µM, first compound 10 µM
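Note: spheroids exposed to compounds for 7 days.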
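Throughout, for viability, T/C: 100% = DMSO vehicle-treated spheroids.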

CCCS(=O)(=O)Nc1ccc(F)c(C(=O)c2c[nH]c3ncc(-c4ccc(Cl)cc4)cc23)c1F + Cc1cccc(N(C)C(=O)C2C(O)CCN2c2nc(C)cc(C(F)(F)F)c2C#N)c1
2.39 µM: IC50 (second compound 10 µM)
inactive: viability, T/C [1] 82.6% | viability, T/C [2] 75.3% | viability, T/C [3] 81.4% | viability, T/C [4] 84.3% | viability, T/C [5] 48.3% | viability, T/C [7] 86.5% | viability, T/C [8] 83.7% | viability, T/C [9] 81.9% | viability, T/C [10] 80.8% | viability, T/C [11] 68.1% | viability, T/C [13] 94.9% | viability, T/C [14] 89.6% | viability, T/C [15] 76.4% | viability, T/C [16] 81.8% | viability, T/C [17] 63.8% | viability, T/C [19] 103% | viability, T/C [20] 91.9% | viability, T/C [21] 90.8% | viability, T/C [22] 80.5% | viability, T/C [23] 58.2% | viability, T/C [25] 104% | viability, T/C [26] 97% | viability, T/C [27] 83.3% | viability, T/C [28] 74.3% | viability, T/C [29] 66.5% | viability, T/C [30] 8.21% | viability, T/C [31] 85.7% | viability, T/C [32] 76.5% | viability, T/C [33] 66.5% | viability, T/C [34] 64.2% | viability, T/C [35] 49.5%
4.07 µM: IC50 (second compound 0.316 µM)
3.81 µM: IC50 (second compound 3.16 µM)
4.45 µM: IC50 (second compound 0.1 µM)
2.98 µM: IC50 (second compound 0.0316 µM)
3.71 µM: IC50 (second compound 1 µM)
active: viability, T/C [6] 6.4% | viability, T/C [12] 8.39% | viability, T/C [18] 6.86% | viability, T/C [24] 6.61% | viability, T/C [36] 4.19%

O=C(Nc1ccc(O)c(NS(=O)(=O)c2ccc(F)cc2)c1)c1ccc(-c2ccccc2)cc1 + COC1C(OC(N)=O)C(O)C(Oc2ccc3c(O)c(NC(=O)c4ccc(O)c(CC=C(C)C)c4)c(=O)oc3c2C)OC1(C)C
5.73 µM: IC50 (second compound 0.316 µM)
inactive: viability, T/C [1] 114% | viability, T/C [2] 68.6% | viability, T/C [3] 95.2% | viability, T/C [4] 72.2% | viability, T/C [5] 72.9% | viability, T/C [6] 38.4% | viability, T/C [7] 74.9% | viability, T/C [8] 108% | viability, T/C [9] 79.2% | viability, T/C [10] 101% | viability, T/C [11] 84% | viability, T/C [12] 36% | viability, T/C [13] 91.5% | viability, T/C [14] 106% | viability, T/C [15] 90.4% | viability, T/C [16] 87.7% | viability, T/C [17] 68.9% | viability, T/C [18] 32.4% | viability, T/C [19] 100% | viability, T/C [20] 84.8% | viability, T/C [21] 107% | viability, T/C [22] 84.7% | viability, T/C [23] 66.6% | viability, T/C [24] 39.6% | viability, T/C [25] 91.9% | viability, T/C [26] 100% | viability, T/C [27] 103% | viability, T/C [28] 103% | viability, T/C [29] 68.5% | viability, T/C [30] 39.1% | viability, T/C [31] 82.8% | viability, T/C [32] 109% | viability, T/C [33] 99.6% | viability, T/C [34] 109% | viability, T/C [35] 66.7% | viability, T/C [36] 44.1%
7.82 µM: IC50 (second compound 0.0316 µM)
6.53 µM: IC50 (second compound 3.16 µM)
7.15 µM: IC50 (second compound 0.1 µM)
6.35 µM: IC50 (second compound 1 µM)
7.4 µM: IC50 (second compound 10 µM)

C#Cc1c(F)ccc2cc(O)cc(-c3ncc4c(N5CC6CCC(C5)N6)nc(OCC56CCCN5CC(F)C6)nc4c3F)c12 (stereo unspecified) + Nc1ccc(C#CCN(C(=O)Cc2ncc(C(F)(F)F)cc2C(F)(F)F)c2ccc(F)cc2)nn1
inactive: viability, T/C [1] 78.6% | viability, T/C [2] 105% | viability, T/C [3] 104% | viability, T/C [4] 93.8% | viability, T/C [5] 114% | viability, T/C [6] 84.2% | viability, T/C [7] 92.1% | viability, T/C [8] 87.9% | viability, T/C [9] 93% | viability, T/C [10] 92.4% | viability, T/C [11] 103% | viability, T/C [12] 92.7% | viability, T/C [13] 101% | viability, T/C [14] 94.5% | viability, T/C [15] 105% | viability, T/C [16] 86.8% | viability, T/C [17] 116% | viability, T/C [18] 91.8% | viability, T/C [19] 106% | viability, T/C [20] 88.4% | viability, T/C [21] 98.6% | viability, T/C [22] 91.6% | viability, T/C [23] 97.9% | viability, T/C [24] 101% | viability, T/C [25] 97.5% | viability, T/C [26] 99.8% | viability, T/C [27] 101% | viability, T/C [28] 86.9% | viability, T/C [29] 93.2% | viability, T/C [30] 95.7% | viability, T/C [31] 95.5% | viability, T/C [32] 102% | viability, T/C [33] 73.8% | viability, T/C [34] 102% | viability, T/C [35] 96.3% | viability, T/C [36] 80.4%
> 10 µM: IC50 (second compound 0.0316 µM) | IC50 (second compound 0.1 µM) | IC50 (second compound 0.316 µM) | IC50 (second compound 1 µM) | IC50 (second compound 3.16 µM) | IC50 (second compound 10 µM)
